Tests used:
NHDF-Neonatal [1] = assay: Colony-forming ability of dermal cells, crystal violet (Test Example 4-1); type: cell-based, human; details: shikimic acid, concentration not given; absorbance 580 nm
Description: (§1) On day 10 after subculturing, the cells (200 cells) were attached on a 60-mm plate. On day 23, the cells were washed with ice-cold PBS and then fixed with ice-cold methanol kept at −20° C. for 10 minutes. The cells were stained by treating for 5-10 minutes with a working solution, which had been prepared by diluting 1% crystal violet in an ethanol stock solution 1/10 with PBS, washed 4 times with PBS and then imaged. For quantitative analysis, the cells were eluted by treating with an elution buffer consisting of 50% ethanol, 40% DW, and 10% acetic acid for 5 minutes. Then, absorbance was measured at 580 nm after transferring 200 μL of the cells to a 96-well plate.

NHDF-Neonatal [2] = assay: Colony-forming ability of dermal cells, crystal violet (Test Example 4-2); type: cell-based, human
Description: as §1, with “day 5” for “day 10”, “day 17,” for “day 23,”

Oct3/4 [3] = assay: Oct3/4 immunocytochemistry after digitonin permeabilization (Test Example 2-1); type: cell-based, human; details: 5 μg/mL shikimic acid (water); permeabilized NHDF-Neonatal; day 4
Description: (§2) Then, 400× images were obtained using the Carl Zeiss Confocal microscope LSM510 by immunocytochemistry using Oct3/4 antibody (Genetex, GTX100622, ×200) and Alexa Fluor® 488 goat anti-rabbit IgG. The ratio of Oct3/4-positive cells was determined by analyzing the Carl Zeiss Confocal microscopic images obtained from the Oct3/4 ICC experiment, for 4 or more images per sample, 5 on average.

[4] = tested on: alkaline phosphatase (ALP); details: 5 μg/mL shikimic acid; day 11
Description: Untreated NHDF-Neonatal were used as a negative control group. On day 6 after the treatment, the cells (5,000 cells) were attached on a 12-well plate. 5 days later, i.e., on day 11, the cells were fixed with 3.8% formaldehyde in PBS and kept at room temperature for 15 minutes. Then, the cells were treated with 200 μL of the NBT/BCIP® ALP substrate solution diluted in 10 mL of ALP buffer, with 0.5 mL each time. 20 hours later, the cells were observed under the Olympus CKX41 optical microscope at 40× magnification.

Oct3/4 [5] = assay: Oct3/4 immunocytochemistry, shikimic acid at different concentrations (Test Example 2-2); type: cell-based, human; details: for Ratio of Oct3/4-positive cells (%) Mean: NHDF-Neonatal, day 8
Description: as §2

NHDF-Neonatal [6] = assay: Proliferating ability of dermal cells, WST-1 (Test Example 5); type: cell-based, human; details: 5 μg/mL shikimic acid; WST-1, absorbance 450 nm
Description: 2,000 NHDF-Neonatal (CC-2509, Lonza, USA) were attached on a 96-well plate. […] Then, we were subculturing it for 7 days (as confluency becomes to 90% or below on 7th day). After 6 days later, 10 μL of WST-1 was treated and absorbance was measured at 450 nm.

[7] = tested on: alkaline phosphatase (ALP); assay: Alkaline phosphatase (ALP) staining, shikimic acid at different concentrations (Test Example 3-2); type: cell-based, human; details: 10 μM or 10 mM shikimic acid; day 12; versus normal HDF
Excerpt: On day 5 after the treatment, the cells (100,000 cells) were attached on a 6-well plate.

## O=C(O)C1=C[C@@H](O)[C@@H](O)[C@H](O)C1 [shikimic acid]
NHDF-Neonatal [1]
  Increase of colony-forming ability as compared to the negative control group (FIG. 16): about 3.8 times
NHDF-Neonatal [2]; 10 μM, 50 μM, 100 μM, 1 mM or 10 mM shikimic acid, absorbance 580 nm, day 17
  Increase of colony-forming ability as compared to the negative control group (FIG. 17): 1.27-5.06 times
NHDF-Neonatal [2]; 10 μM-10 mM shikimic acid, day 17, versus negative control
  Crystal violet stained area, colony formation (FIG. 15): larger stained area
NHDF-Neonatal [2]; 1 mM shikimic acid
  Colony-forming ability, comparison of concentrations (FIG. 17): the most increase in colony-forming ability
Oct3/4 [3]
  Ratio of Oct3/4-positive cells (%) Mean: 29%
[4]
  Expression of ALP (FIG. 12): increased expression of ALP
Oct3/4 [5]; 10 μM or 10 mM shikimic acid, compared to untreated normal HDF
  Expression of the Oct3/4 gene in HDF (FIG. 11): increased expression of the Oct3/4 gene
Oct3/4 [5]; 10 μM shikimic acid (water)
  Ratio of Oct3/4-positive cells (%) Mean: 29%
Oct3/4 [5]; 10 mM shikimic acid (water)
  Ratio of Oct3/4-positive cells (%) Mean: 27%
Oct3/4 [5]; shikimic acid in water, 10 μM and 10 mM
  Percentage of the cells positive for the Oct3/4 gene, on average: 27-29%
NHDF-Neonatal [6]
  Increase of cell division as compared to the normal control group (FIG. 18): 2 times
[7]
  Expression of ALP (FIG. 13): the expression of ALP was increased remarkably

Source: US10251824B2, “Method for inducing pluripotent stem cells and pluripotent stem cells prepared by said method” (AMOREPACIFIC CORPORATION, priority 2013, dated 2019)
